Data on 15 compounds can be found in PubChem BioAssay (NCI).

The TGI is the concentration giving total growth inhibition. Low readings indicate greater sensitivity of the cells, high ones lower sensitivity of the cells. One may read the GI50 as the concentration that inhibits growth by half.

Test systems include HOP-62 NSCLC; HOP-92 NSCLC; HS 578T breast; M14 melanoma; MALME-3M melanoma; MDA-N; NCI-H460 lung; OVCAR-4 ovarian; SF-295 CNS; SR leukemia.
Common to all, as to assay: DTP human tumour cell line panel, 48 h

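All cell lines were grown in 96-well plates and treated with compound for 48 hours. GI50 is the concentration that inhibits growth by half. TGI: concentration producing complete growth inhibition.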

Turning to `CC(C)C(C/C=C1\CC(CO)(COC(=O)C2CCCCC2)OC1=O)C(C)C` (stereo not given), the concentration for total growth inhibition (TGI) in the assay with HOP-62 NSCLC stood at 27.5 µM; in the assay with HOP-92 NSCLC it was 37.5 µM; with HS 578T breast, 31.8 µM; in the assay on M14 melanoma it was 48.4 µM; with MALME-3M melanoma it was 35.5 µM; in the assay on MDA-N, 59.3 µM. Further, the TGI with NCI-H460 lung was 76 µM; in the assay with OVCAR-4 ovarian, 36 µM; in the assay with SF-295 CNS, 33.2 µM; in the assay with SR leukemia it was above 100 µM.

On to `COc1cc(C2C(Cl)C(=O)N2c2c(C)n(C)n(-c3ccccc3)c2=O)ccc1O` (stereo not given), for which the total growth inhibition concentration (TGI) in the assay with HOP-62 NSCLC turned out to be 73.2 µM; with HOP-92 NSCLC, 74 µM; in the assay on M14 melanoma it was 30.7 µM; in the assay on MALME-3M melanoma it was 61.9 µM; with MDA-N, 32.6 µM; in the assay on NCI-H460 lung, 59.7 µM. Also, the TGI with OVCAR-4 ovarian came out at 37.6 µM; in the assay on SF-295 CNS, 50 µM; in the assay on SR leukemia it was 58.6 µM.

On to `Cc1cc2c([nH]c3ccccc32)c(O)c1-c1c(C)cc2c([nH]c3ccccc32)c1O`, for which the TGI in the assay on HOP-62 NSCLC was found to be 31.5 µM; with HOP-92 NSCLC, 30.7 µM; in the assay on HS 578T breast, 32.7 µM; with M14 melanoma it was 29.8 µM; in the assay with MDA-N, 27.8 µM; with NCI-H460 lung, 16.7 µM. In addition, the concentration for total growth inhibition (TGI) in the assay on OVCAR-4 ovarian came out at 28.8 µM; in the assay with SF-295 CNS, 33.4 µM; with SR leukemia it was 16 µM. For the same compound, the GI50 in the assay with MDA-N was 14.7 µM; in the assay on SF-295 CNS, 17.4 µM; with SR leukemia it was 3.16 µM.

As to `CN(C)Cc1cc(C(=O)/C=C/c2ccccc2)cc(CN(C)C)c1O`, the TGI with HOP-62 NSCLC was above 100 µM; with HOP-92 NSCLC, 67.4 µM; with HS 578T breast, above 100 µM; with M14 melanoma, 63.1 µM; with MALME-3M melanoma it was 44.9 µM; in the assay on MDA-N, 35.7 µM. Also, the concentration for total growth inhibition (TGI) with NCI-H460 lung was 44.8 µM; with OVCAR-4 ovarian, above 100 µM; with SF-295 CNS it was 39.6 µM; with SR leukemia, 59.1 µM.

For `Cc1nc(N)c(N2CCN(CN)CC2)c(=O)[nH]1`, the TGI in the assay on HOP-62 NSCLC, in the assay with HS 578T breast, in the assay on M14 melanoma, in the assay on MALME-3M melanoma, with MDA-N and in the assay on NCI-H460 lung was above 100 µM in each case. In addition, the TGI in the assay with OVCAR-4 ovarian, with SF-295 CNS and in the assay on SR leukemia was above 100 µM each time.

For `NNC(=O)C1(NC(=O)c2ccccc2)C(c2ccccc2)C(c2ccccc2)=NN1c1ccccc1` (stereo not given), the concentration for total growth inhibition (TGI) in the assay on HOP-62 NSCLC was above 100 µM; in the assay on M14 melanoma it was 54.9 µM; in the assay with MALME-3M melanoma, above 100 µM; in the assay with MDA-N it was 57.9 µM; in the assay on NCI-H460 lung, above 100 µM; in the assay with OVCAR-4 ovarian it was above 100 µM. Also, the figures for the TGI in the assay on SF-295 CNS and in the assay with SR leukemia were above 100 µM and 65.6 µM, respectively.

In the case of `Nc1nc(Cl)cc(NC23CC4CC(CC(C4)C2)C3)n1`, the TGI in the assay with HOP-62 NSCLC, with HOP-92 NSCLC, in the assay with M14 melanoma, with MALME-3M melanoma, in the assay with MDA-N and in the assay with NCI-H460 lung was above 100 µM in each case. Besides, the TGI in the assay on OVCAR-4 ovarian, in the assay on SF-295 CNS and in the assay with SR leukemia was above 100 µM each time.

Consider `CC(C)/C(Cl)=N\OC(NC(=O)P(=O)(c1ccccc1)c1ccccc1)(C(F)(F)F)C(F)(F)F`, for which the TGI with HOP-62 NSCLC was 32.9 µM; with HOP-92 NSCLC it was 12.8 µM; in the assay on HS 578T breast, above 100 µM; with M14 melanoma, 15.8 µM; with MALME-3M melanoma, 20.9 µM; in the assay with MDA-N, 63.8 µM. Moreover, the total growth inhibition concentration (TGI) in the assay on NCI-H460 lung is 53.7 µM; in the assay with OVCAR-4 ovarian it was 25.1 µM; with SF-295 CNS it was 79.5 µM; with SR leukemia, 59 µM.

In the case of `COc1ccc(Nc2ccc3ccccc3c2-c2c(O)ccc3ccccc23)cc1`, the TGI in the assay on HOP-62 NSCLC stood at 25.1 µM; with HOP-92 NSCLC it was 14.3 µM; in the assay with MDA-N it was 29.4 µM; in the assay with NCI-H460 lung, 30 µM; with OVCAR-4 ovarian, 41.9 µM; in the assay with SF-295 CNS it was 34.6 µM. The TGI in the assay with SR leukemia is 30.6 µM.

As to `O=c1c(-c2ccccc2)c(SCCO)n(-c2ccccc2)c(=S)n1-c1ccccc1`, the TGI in the assay with HOP-62 NSCLC, in the assay with HS 578T breast, in the assay with M14 melanoma, in the assay on MALME-3M melanoma, in the assay on MDA-N and in the assay on NCI-H460 lung was above 100 µM throughout. In addition, the TGI in the assay with OVCAR-4 ovarian, with SF-295 CNS and with SR leukemia was above 100 µM in each case.

As to `COc1ccc(-c2oc3cc(O)cc(O)c3c(=O)c2OC)cc1`, the TGI is above 100 µM in the assay with HOP-62 NSCLC; 16.1 µM in the assay with HOP-92 NSCLC; above 100 µM in the assay with M14 melanoma; above 100 µM in the assay on MALME-3M melanoma; above 100 µM in the assay with MDA-N; 65.6 µM with NCI-H460 lung. The TGI in the assay on OVCAR-4 ovarian, in the assay with SF-295 CNS and in the assay with SR leukemia was above 100 µM in each case.

Regarding `C=CCP(=O)(CC=C)C(Cl)Cl`, the TGI with HOP-62 NSCLC, in the assay with HOP-92 NSCLC, in the assay with HS 578T breast, in the assay with M14 melanoma, in the assay with MDA-N and in the assay on NCI-H460 lung was above 100 µM throughout. Also, the TGI with OVCAR-4 ovarian, in the assay with SF-295 CNS and in the assay on SR leukemia was above 100 µM throughout.

Turning to `c1ccc(/C(=N/Nc2ccncn2)c2ccccn2)cc1`, the TGI with HOP-62 NSCLC is above 100 µM; in the assay on HS 578T breast, 29.9 µM; with M14 melanoma it was 30.5 µM; in the assay with MDA-N, above 100 µM; in the assay with NCI-H460 lung it was above 100 µM; in the assay on OVCAR-4 ovarian, above 100 µM. The TGI in the assay on SF-295 CNS was 64.9 µM; in the assay on SR leukemia it was above 100 µM.

Take `COC[C@@H](N=Cc1ccc([N+](=O)[O-])cc1)C(C)C`: the TGI in the assay on HS 578T breast, in the assay with M14 melanoma, in the assay on MALME-3M melanoma, in the assay with MDA-N, with NCI-H460 lung and in the assay with OVCAR-4 ovarian was above 100 µM each time. For the same compound, the total growth inhibition concentration (TGI) in the assay on SF-295 CNS and with SR leukemia was above 100 µM each time.

As to `CN1CC2=C(NC(=S)NC2c2ccccc2)/C(=C/c2ccccc2)C1` (stereo not given), the total growth inhibition concentration (TGI) in the assay with HOP-62 NSCLC was above 100 µM; in the assay with HS 578T breast it was above 100 µM; with M14 melanoma, 56.6 µM; in the assay on MALME-3M melanoma, above 100 µM; with MDA-N it was above 100 µM; with NCI-H460 lung, above 100 µM. Also, the TGI in the assay with SF-295 CNS and in the assay with SR leukemia was above 100 µM each time.
